Experimental data as given in PMC8633346, “Engineering of a fluorescent chemogenetic reporter with tunable color for advanced live-cell imaging” (Nature Communications, 2021).

The molecules below were run against T1, pFAST (Halorhodospira halophila, UniProt P16113, A30V/C69G/D97P/F96I/G21E/G25R/K17N/M100R/M109L/Q41L/Q99S/S117R/S72T/T101G/V83A/Y94W/Y98T) (assay: fluorescence titration, one-site fit). Conditions: not given.
T1 construct: gene pyp; engineered PYP variant; changes relative to FAST: K17N, G21E, G25R, A30V, Q41L, S72T, V83A, M95T, M109L, S117R (M95T restores T95 of PYP); N-terminal His-tag, E. coli Rosetta (DE3) pLys, Ni-NTA; FAST 14 kDa
T1 sequence (P16113 1-125 K17N/G21E/G25R/A30V/Q41L/C69G/S72T/V83A/Y94W/F96I/D97P/Y98T/Q99S/M100R/T101G/M109L/S117R): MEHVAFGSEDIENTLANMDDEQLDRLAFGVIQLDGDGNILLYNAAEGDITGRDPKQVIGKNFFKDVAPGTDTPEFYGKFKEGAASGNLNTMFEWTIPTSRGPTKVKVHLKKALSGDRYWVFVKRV
Molecule `COc1cc(C=C2SC(O)=NC2=S)cc(OC)c1O` [HBIR-3,5DOM, (4-hydroxy-3,5-dimethoxylbenzylidene)-4-thioxothiazolidin-2-one] has a Kd of 40 nM. Molecule `Cc1cc(C=C2OC(=O)NC2=O)cc(C)c1O` [HBO-3,5DM, (4-hydroxy-3,5-dimethylbenzylidene)oxazolidine-2,4-dione] has a Kd of 2400 nM. Molecule `Cc1cc(C=C2OC(=O)NC2=O)ccc1O` [HBO-3M, (4-hydroxy-3-methylbenzylidene)oxazolidine-2,4-dione] has a Kd of 430 nM. Work on `Cc1cc(C=C2SC(=N)NC2=O)cc(C)c1O` [HBP-3,5DM, (4-hydroxy-3,5-dimethylbenzylidene)-2-iminothiazolidin-4-one] yielded a Kd of 150 nM. `COc1cc(C=C2SC(=N)NC2=O)cc(OC)c1O` [HBP-3,5DOM, (4-hydroxy-3,5-dimethoxybenzylidene)-2-iminothiazolidin-4-one] showed a Kd of 1900 nM. With `Cc1cc(C=C2SC(=N)NC2=O)ccc1O` [HBP-3M, (4-hydroxy-3-methylbenzylidene)-2-iminothiazolidin-4-one] the Kd was 220 nM. Work on `Cc1cc(C=C2SC(=S)NC2=O)cc(C)c1O` [HBR-3,5DM, 4-hydroxy-3,5-dimethylbenzylidene rhodanine] yielded a Kd of 10 nM. With `COc1cc(C=C2SC(=S)NC2=O)cc(OC)c1O` [HBR-3,5DOM, 4-hydroxy-3,5-dimethoxybenzylidene rhodanine] the Kd was 60 nM. `Cc1cc(/C=C2\SC(=S)N(CC(=O)O)C2=O)cc(C)c1O` [HBRAA-3,5DM, 5-((4-hydroxy-3,5-dimethylbenzylidene)-4-oxo-2-thioxothiazolidin-3-yl) acetic acid] gave a Kd of 1800 nM. `Cc1cc(C=C2SC(=O)NC2=O)cc(C)c1O` [HBT-3,5DM, (4-hydroxy-3,5-dimethylbenzylidene)thiazolidine-2,4-dione] was tested, and the Kd was 170 nM. With `COc1cc(/C=C2\SC(=O)NC2=O)cc(OC)c1O` [HBT-3,5DOM, (4-hydroxy-3,5-dimethoxybenzylidene)thiazolidine-2,4-one] the Kd was 200 nM.

Each molecule was assayed against T2, pFAST (Halorhodospira halophila, UniProt P16113, K17N/G21E/G25R/A30V/Q41L/C69G/S72T/V83A/Y94W/F96I/D97P/Y98T/Q99S/M100R/T101G/M109L/S117R) (assay: fluorescence titration, one-site fit). Conditions: PBS pH 7.4.
T2 construct: gene pyp; engineered PYP variant; changes relative to FAST: K17N, G21E, G25R, A30V, Q41L, S72T, V83A, M95T, M109L, S117R (M95T restores T95 of PYP); N-terminal His-tag, E. coli Rosetta (DE3) pLys, Ni-NTA; FAST 14 kDa
T2 sequence (P16113 1-125 K17N/G21E/G25R/A30V/Q41L/C69G/S72T/V83A/Y94W/F96I/D97P/Y98T/Q99S/M100R/T101G/M109L/S117R): T1 sequence (P16113 1-125 K17N/G21E/G25R/A30V/Q41L/C69G/S72T/V83A/Y94W/F96I/D97P/Y98T/Q99S/M100R/T101G/M109L/S117R)
Type: binding
For `Cc1cc(C=C2SC(=O)NC2=O)ccc1O` [HBT-3M, (4-hydroxy-3-methylbenzylidene)thiazolidine-2,4-dione], the KD was “KD) values of their assembly with pFAST are indicated into brackets”.
